Measured values published in ChEMBL document CHEMBL1201862, “PubChem BioAssay data set” (2004).
Calls of active or inactive are those of the source.

Columns and labels:
HEK293 [1] = assay: cells; conditions: Homo sapiens
HEK293 [2] = assay: cells; conditions: Homo sapiens; remark: listed apart in the source
Aurora kinase A = molecular target: T1, Aurora kinase A (Homo sapiens, UniProt O14965); format: functional;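 also: value from the Navigating the Kinome kinase panel profiling, panel entry STK6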
T1 sequence (O14965 whole entry): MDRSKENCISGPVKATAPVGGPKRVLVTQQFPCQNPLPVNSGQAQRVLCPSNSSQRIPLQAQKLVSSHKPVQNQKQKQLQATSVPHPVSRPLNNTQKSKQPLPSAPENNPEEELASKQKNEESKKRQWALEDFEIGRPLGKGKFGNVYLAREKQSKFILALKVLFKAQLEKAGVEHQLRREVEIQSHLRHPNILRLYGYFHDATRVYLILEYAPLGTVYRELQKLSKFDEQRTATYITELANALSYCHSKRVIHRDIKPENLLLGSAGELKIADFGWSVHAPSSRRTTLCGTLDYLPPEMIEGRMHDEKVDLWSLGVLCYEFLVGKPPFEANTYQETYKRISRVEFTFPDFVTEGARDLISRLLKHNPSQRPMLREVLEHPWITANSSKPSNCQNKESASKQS

Aurora kinase B = Aurora kinase B (Homo sapiens, UniProt Q96GD4); format: functional
[3] = inhibitors of intracellular T. cruzi replication, confirmation, NIH3T3 host cells, beta-gal luminescence (AID 2044); format: functional, cell-based;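 also: intracellular parasites grown in NIH/3T3 mouse fibroblasts as host cells; luminescent beta-galactosidase reporter signal from transgenic T. cruzi replicating inside host cells; inhibitors lower the luminescence signal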
[4] = cytotoxicity toward NIH3T3 fibroblasts, dose response, counter-screen, cell-based, ATP luminescence, mouse fibroblasts (AID 2010); format: functional;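 also: cells exposed to compound for about 90 hours before reading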
Exodeoxyribonuclease V = molecular target: T2, Exodeoxyribonuclease V (Escherichia coli (strain K12), UniProt P04993+P07648+P08394); assay: E. coli RecBCD inhibitors, dose response, counter-screen for AddAB inhibitor project, absorbance, V66 E. coli, mutant T4 phage (AID 492957); format: functional, cell-based, Escherichia coli str. K-12 substr. MG1655
T2 sequence (P04993 whole entry): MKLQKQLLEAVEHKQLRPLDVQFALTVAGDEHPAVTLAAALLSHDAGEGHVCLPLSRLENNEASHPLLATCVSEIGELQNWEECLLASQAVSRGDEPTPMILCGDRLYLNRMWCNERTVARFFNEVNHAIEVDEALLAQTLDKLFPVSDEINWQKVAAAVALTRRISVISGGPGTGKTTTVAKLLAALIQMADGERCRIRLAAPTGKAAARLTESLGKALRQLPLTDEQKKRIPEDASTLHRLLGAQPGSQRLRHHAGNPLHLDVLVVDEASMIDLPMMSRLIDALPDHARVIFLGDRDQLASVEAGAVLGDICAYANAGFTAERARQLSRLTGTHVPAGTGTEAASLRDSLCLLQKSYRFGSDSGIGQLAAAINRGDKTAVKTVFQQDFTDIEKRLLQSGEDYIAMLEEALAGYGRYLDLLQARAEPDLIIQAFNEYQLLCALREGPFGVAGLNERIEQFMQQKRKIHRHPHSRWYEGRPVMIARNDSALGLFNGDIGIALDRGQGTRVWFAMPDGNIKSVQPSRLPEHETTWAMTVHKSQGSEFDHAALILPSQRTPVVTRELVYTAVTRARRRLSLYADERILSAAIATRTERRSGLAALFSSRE
T2 sequence (P07648 whole entry): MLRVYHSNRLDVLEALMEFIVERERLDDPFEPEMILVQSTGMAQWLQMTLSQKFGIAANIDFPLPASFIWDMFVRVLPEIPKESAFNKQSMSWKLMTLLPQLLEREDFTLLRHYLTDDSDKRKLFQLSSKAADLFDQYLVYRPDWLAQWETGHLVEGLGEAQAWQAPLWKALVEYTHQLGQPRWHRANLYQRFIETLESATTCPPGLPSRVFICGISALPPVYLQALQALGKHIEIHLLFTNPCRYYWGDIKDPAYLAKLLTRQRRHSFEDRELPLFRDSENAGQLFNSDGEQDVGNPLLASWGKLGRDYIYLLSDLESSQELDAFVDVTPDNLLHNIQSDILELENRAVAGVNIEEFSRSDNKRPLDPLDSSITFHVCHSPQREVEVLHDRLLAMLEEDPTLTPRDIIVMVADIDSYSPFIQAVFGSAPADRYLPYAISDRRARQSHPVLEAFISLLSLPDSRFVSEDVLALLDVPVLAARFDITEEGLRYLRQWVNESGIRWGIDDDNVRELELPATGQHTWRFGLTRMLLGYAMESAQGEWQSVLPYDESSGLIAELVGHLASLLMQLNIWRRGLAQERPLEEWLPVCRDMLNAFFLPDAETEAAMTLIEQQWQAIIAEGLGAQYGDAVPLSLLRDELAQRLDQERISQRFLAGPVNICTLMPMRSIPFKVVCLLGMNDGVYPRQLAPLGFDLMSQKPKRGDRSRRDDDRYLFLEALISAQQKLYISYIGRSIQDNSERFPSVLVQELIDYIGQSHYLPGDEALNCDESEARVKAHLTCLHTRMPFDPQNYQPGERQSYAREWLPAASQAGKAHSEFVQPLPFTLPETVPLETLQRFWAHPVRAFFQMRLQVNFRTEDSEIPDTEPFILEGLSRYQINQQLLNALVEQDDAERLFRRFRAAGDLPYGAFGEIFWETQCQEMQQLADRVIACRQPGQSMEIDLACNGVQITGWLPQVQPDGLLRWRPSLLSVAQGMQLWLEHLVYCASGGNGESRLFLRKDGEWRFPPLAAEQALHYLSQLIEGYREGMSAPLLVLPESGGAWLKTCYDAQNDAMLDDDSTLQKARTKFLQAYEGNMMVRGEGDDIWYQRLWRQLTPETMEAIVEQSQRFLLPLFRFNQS
T2 sequence (P08394 whole entry): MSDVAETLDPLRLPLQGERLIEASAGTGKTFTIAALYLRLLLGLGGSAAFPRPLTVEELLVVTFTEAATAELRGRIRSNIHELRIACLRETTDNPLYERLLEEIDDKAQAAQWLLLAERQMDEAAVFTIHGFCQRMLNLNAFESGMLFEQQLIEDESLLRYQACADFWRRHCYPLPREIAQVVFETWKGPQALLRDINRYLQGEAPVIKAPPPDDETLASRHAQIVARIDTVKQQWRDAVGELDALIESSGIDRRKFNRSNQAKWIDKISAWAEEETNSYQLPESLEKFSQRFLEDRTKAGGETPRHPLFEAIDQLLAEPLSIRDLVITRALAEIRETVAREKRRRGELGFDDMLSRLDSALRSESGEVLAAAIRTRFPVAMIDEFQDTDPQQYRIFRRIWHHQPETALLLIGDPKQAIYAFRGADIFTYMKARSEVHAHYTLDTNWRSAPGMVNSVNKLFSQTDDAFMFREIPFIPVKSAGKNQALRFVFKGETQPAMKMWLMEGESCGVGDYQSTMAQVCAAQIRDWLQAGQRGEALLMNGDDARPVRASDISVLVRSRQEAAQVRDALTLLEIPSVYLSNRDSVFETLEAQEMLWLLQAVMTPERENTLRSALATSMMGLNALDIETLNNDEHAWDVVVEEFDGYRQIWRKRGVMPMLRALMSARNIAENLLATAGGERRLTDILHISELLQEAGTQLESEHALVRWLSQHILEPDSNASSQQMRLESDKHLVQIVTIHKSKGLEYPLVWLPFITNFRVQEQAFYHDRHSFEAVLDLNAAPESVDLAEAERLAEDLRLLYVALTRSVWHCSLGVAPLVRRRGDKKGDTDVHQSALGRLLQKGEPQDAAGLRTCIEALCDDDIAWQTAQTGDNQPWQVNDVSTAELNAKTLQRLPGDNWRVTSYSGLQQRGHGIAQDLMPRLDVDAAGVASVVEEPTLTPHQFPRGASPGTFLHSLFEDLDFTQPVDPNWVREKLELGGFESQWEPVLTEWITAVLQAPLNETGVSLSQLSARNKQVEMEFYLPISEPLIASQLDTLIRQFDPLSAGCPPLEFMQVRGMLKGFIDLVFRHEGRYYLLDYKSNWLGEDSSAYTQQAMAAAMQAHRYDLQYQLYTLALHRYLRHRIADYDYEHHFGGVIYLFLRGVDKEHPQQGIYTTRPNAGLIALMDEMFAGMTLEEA

[5] = THP-1 cell cytotoxicity, dose response, cytotoxicity control for non-replicating M. tuberculosis project (AID 489025); format: functional
[6] = Vero E6 cell cytotoxicity, dose response, cytotoxicity control for non-replicating M. tuberculosis project, secondary assay (AID 492998); format: functional, VeroE6; conditions: Vero C1008
[7] = Counterscreen for AddAB inhibitors: absorbance-based bacterial cell-based high throughput dose response assay for inhibitors of bacterial viability. [Related pubchem assays (depositor defined):AID435030, AID449728, AID449731, AID488942, AID488955, AID488956]; format: functional
cells = format: functional
[8] = HEp-2 cell cytotoxicity, dose response, cytotoxicity control for RSV inhibitor project, HTS (AID 2410); format: functional; conditions: human respiratory syncytial virus
[9] = test system: Streptococcus sp. 'group A'; assay: growth inhibition of control SK(-) GAS strain, dose response, counter-screen for streptokinase expression inhibitor project, luminescence, kanamycin, BacTiterGlo, confirmation (AID 1900); format: functional, organism-based
Streptococcus = assay: Group A Streptococcus viability loss, dose response, counter-screen for streptokinase expression inhibitor project, luminescence, BacTiterGlo (AID 1915); format: functional, organism-based;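 also: potency for reduction of bacterial viability or growth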
CHO = assay: cytotoxicity in TLR9-MyD88 CHO cells, dose response, cytotoxicity control for TLR9-MyD88 binding inhibitor project, cell-based, luminescence (AID 588339); format: functional, hamster; conditions: Cricetulus griseus;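 also: CHO cells stably coexpressing TLR9 and MyD88 fusions from primary screen; compound exposure lasted 48 hours before viability readout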
Beta Lactamase = Beta Lactamase (Pseudomonas aeruginosa, UniProt Q932Y6); assay: beta-lactamase reporter inhibitor potency, dose response, artefact control for TLR9-MyD88 binding inhibitor project, BLA reporter cells, FRET fluorescence (AID 588341); format: cell-based;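 also: cell based assay in CHO-K1 cells stably expressing beta-lactamase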
Nonstructural protein 1 = Nonstructural protein 1 (Influenza A virus, UniProt Q194T2); format: functional, Influenza A virus (A/California/07/2009(H1N1))
Nonstructural protein 1, sequence (Q194T2 whole entry): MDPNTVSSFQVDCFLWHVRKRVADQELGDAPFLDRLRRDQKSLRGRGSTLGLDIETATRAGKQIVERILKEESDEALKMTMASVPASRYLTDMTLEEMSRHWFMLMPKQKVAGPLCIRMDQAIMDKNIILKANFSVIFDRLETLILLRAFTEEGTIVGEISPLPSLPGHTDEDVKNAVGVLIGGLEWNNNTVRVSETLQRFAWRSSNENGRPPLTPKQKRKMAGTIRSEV

Aurora kinase B, sequence (Q96GD4 whole entry): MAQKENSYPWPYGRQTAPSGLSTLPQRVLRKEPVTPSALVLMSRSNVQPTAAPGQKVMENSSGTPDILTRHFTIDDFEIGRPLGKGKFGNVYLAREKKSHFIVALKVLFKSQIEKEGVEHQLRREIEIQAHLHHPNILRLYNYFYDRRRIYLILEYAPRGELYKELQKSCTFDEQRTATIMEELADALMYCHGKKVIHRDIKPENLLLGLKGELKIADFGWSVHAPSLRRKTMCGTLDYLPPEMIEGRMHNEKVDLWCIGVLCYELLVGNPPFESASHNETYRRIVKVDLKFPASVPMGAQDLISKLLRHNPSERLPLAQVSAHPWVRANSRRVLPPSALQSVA
Beta Lactamase, sequence (Q932Y6 whole entry): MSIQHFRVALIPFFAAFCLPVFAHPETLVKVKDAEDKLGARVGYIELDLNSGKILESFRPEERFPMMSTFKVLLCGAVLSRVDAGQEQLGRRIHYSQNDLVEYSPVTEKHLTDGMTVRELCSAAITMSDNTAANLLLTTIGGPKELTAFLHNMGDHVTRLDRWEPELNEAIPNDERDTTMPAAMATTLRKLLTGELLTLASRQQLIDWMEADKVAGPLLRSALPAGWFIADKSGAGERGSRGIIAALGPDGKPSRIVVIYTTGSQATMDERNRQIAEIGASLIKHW

COc1ccccc1-c1ccc2c(c1)C(C)(Cc1cccc(C#N)c1)C(=O)N2 (centres undefined)
EC50 (HEK293 [1]): > 59.6 µM (inactive) | EC50 (HEK293 [2]): > 59.6 µM (inactive)

COCCOC1CCC(n2nc(-c3ccc(Nc4nc5cc(Cl)ccc5o4)c(F)c3)c3c(N)ncnc32)CC1 (centres undefined)
Ki (Aurora kinase A): 0.0398 µM (active) | Ki (Aurora kinase B): 0.01 µM (active)

Cc1cccc(/C=N/NC(=O)c2cccc([N+](=O)[O-])c2)n1
EC50 (HEK293 [1]): > 59.6 µM (inactive) | EC50 (HEK293 [2]): > 59.6 µM (inactive)

CCCn1c(NC(=O)c2ccc([N+](=O)[O-])o2)nc2ccccc21
EC50 [3]: 0.128 µM (active) | EC50 [4]: > 30 µM (not active) | IC50 (Exodeoxyribonuclease V): > 118 µM (inactive) | CC50 [5]: 17.1 µM (active) | CC50 [6]: 13.3 µM (active) | IC50 [7]: > 118 µM (inactive) | IC50 (cells): 1.51 µM (active)

Cn1c2ccccc2c(=O)c2ccc(C#Cc3ccc(N)cc3)cc21
CC50 [8]: > 50 µM (active) | EC50 [9]: 1.92 µM (active) | EC50 (Streptococcus): 2.12 µM (active) | IC50 (CHO): > 49.8 µM (inactive) | IC50 (Beta Lactamase): 5.26 µM (active)

CN(C)c1ccc(N=Nc2ccccc2C(=O)OCC(=O)NC2CCCC2)cc1
IC50 (Nonstructural protein 1): 20.4 µM (active)
